Patent US20080280920A1, “Plasminogen Activator Inhibitor-1 Inhibitors” (priority 2005, published 2008)

Key:
Assay type in all cases: cell-based, human
CCRF-CEM = assay: NCI anticancer screen, CCRF-CEM; details: Leukemia, 48 h
RPMI-8226 = assay: NCI anticancer screen, RPMI-8226; details: RPMI-8226, Leukemia, 48 h
HOP-62 = assay: NCI anticancer screen, HOP-62; details: HOP-62, Non-Small Cell Lung, 48 h
[1] = Homo sapiens, read-out: LC50 (the source's name)

Structure (SMILES) | GI50 (CCRF-CEM; Homo sapiens) | GI50 (RPMI-8226; Homo sapiens) | GI50 (HOP-62; Homo sapiens) | CC50 (CCRF-CEM; [1]) | TGI (CCRF-CEM) | CC50 (RPMI-8226; [1]) | TGI (RPMI-8226) | TGI (HOP-62) | LC50 (HOP-62; Homo sapiens)
CC(C)(C)OC(=O)Nc1ccc(O)c(C(=O)NCCOC(=O)NCCNC(=O)c2cc(OCc3ccccc3)ccc2OCc2ccccc2)c1 [Compound Q012052, 2-[5-(BOC-amino)-2-hydroxybenzoylamino]ethyl 2-[2,5-bis-(benzyl-oxy)benzoylamino]ethylcarbamate] | > 100 µM | 7.58 µM | > 100 µM | – | – | – | – | – | –
CCOC(=O)c1ccc(CNCc2cc(CN3CCN(c4ccccn4)CC3)c(O)c(OC)c2)cc1 [Compound Q012135T] | 14.1 µM | 7.14 µM | 20.6 µM | 14.1 µM | 48.4 µM | 7.14 µM | 24.5 µM | 43.9 µM | 93.8 µM
